# Test results from patent publication US20230219904A1 (SYNGENTA CROP PROTECTION AG, priority 2020, published 2023).
# Columns and labels:
# Type in all cases: in vivo
# Conditions in all cases: evaluated after 13 days
# [1] = test system: Abutilon theophrasti (ABUTH); assay: Post-emergence herbicidal glasshouse test (Table B1)
# Method in brief: (§1)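 In this pot assay, seedlings or sown soil receive a spray of formulated active ingredient (acetone/water 50:50, 0.5% Tween 20) at 500 g/h unless indicated. Conditions: 24/16° C day/night, 14 hours light, 65% humidity, watering twice daily. Injury is scored after 13 days, 1 (0-19%) to 5 (80-100%).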
# [2] = test system: Echinochloa crus-galh (ECHCG); assay: as above
# Method in brief: as §1
# [3] = test system: Ipomoea hederacea (IPOHE); assay: as above
# Method in brief: as §1
# Setaria faberi (SETFA) [4] = assay: as above
# Method in brief: as §1
# [5] = test system: Amaranthus retoflexus (AMARE); assay: as above
# Method in brief: as §1
# [6] = test system: Abutilon theophrasti (ABUTH); assay: Pre-emergence herbicidal glasshouse test (Table B1)
# Method in brief: as §1
# [7] = test system: Echinochloa crus-galh (ECHCG); assay: as above
# Method in brief: as §1
# [8] = test system: Ipomoea hederacea (IPOHE); assay: as above
# Method in brief: as §1
# Setaria faberi (SETFA) [9] = assay: as above
# Method in brief: as §1
# [10] = test system: Amaranthus retoflexus (AMARE); assay: as above
# Method in brief: as §1
SMILES,"POST Application ABUTH, percentage damage on five-point scale ([1]; applied at 500 g/h)","POST Application ECHCG, percentage damage on five-point scale ([2]; applied at 500 g/h)","POST Application IPOHE, percentage damage on five-point scale ([3]; applied at 500 g/h)","POST Application SETFA, percentage damage on five-point scale (Setaria faberi (SETFA) [4]; applied at 500 g/h)","POST Application AMARE, percentage damage on five-point scale ([5]; applied at 500 g/h)","PRE Application ABUTH, percentage damage on five-point scale ([6]; applied at 500 g/h)","PRE Application ECHCG, percentage damage on five-point scale ([7]; applied at 500 g/h)","PRE Application IPOHE, percentage damage on five-point scale ([8]; applied)","PRE Application SETFA, percentage damage on five-point scale (Setaria faberi (SETFA) [9]; applied at 500 g/h)","PRE Application AMARE, percentage damage on five-point scale ([10]; applied at 500 g/h)","POST Application ABUTH, percentage damage on five-point scale ([1]; applied at 125 g/ha)","POST Application ECHCG, percentage damage on five-point scale ([2]; applied at 125 g/ha)","POST Application IPOHE, percentage damage on five-point scale ([3]; applied at 125 g/ha)","POST Application SETFA, percentage damage on five-point scale (Setaria faberi (SETFA) [4]; applied at 125 g/ha)","POST Application AMARE, percentage damage on five-point scale ([5]; applied at 125 g/ha)","PRE Application ABUTH, percentage damage on five-point scale ([6]; applied at 125 g/ha)","PRE Application ECHCG, percentage damage on five-point scale ([7]; applied at 125 g/ha)","PRE Application IPOHE, percentage damage on five-point scale ([8]; applied at 125 g/ha)","PRE Application SETFA, percentage damage on five-point scale (Setaria faberi (SETFA) [9]; applied at 125 g/ha)","PRE Application AMARE, percentage damage on five-point scale ([10]; applied at 125 g/ha)"
CC(=O)Nc1c(OC(F)(F)F)ccc(C(=O)Nc2nnc(C)o2)c1Cl [Compound 2.002],5 (5=80-100%),5 (5=80-100%),5 (5=80-100%),5 (5=80-100%),5 (5=80-100%),3 (3=40-59%),1 (1=0-19%),1 (1=0-19%),1 (1=0-19%),1 (1=0-19%),,,,,,,,,,
Cn1nnnc1NC(=O)c1ccc(OC(F)F)c(NC(=O)c2ccc(C(F)(F)F)cn2)c1Cl [Compound 1.084],,,,,,,,,,,5 (5=80-100%),3 (3=40-59%),3 (3=40-59%),3 (3=40-59%),4 (4=60-79%),4 (4=60-79%),1 (1=0-19%),1 (1=0-19%),1 (1=0-19%),5 (5=80-100%)
Cn1nnnc1NC(=O)c1ccc(OC(F)(F)F)c(NC(=O)C(C)(C)C)c1Cl [Compound 1.107],5 (5=80-100%),5 (5=80-100%),5 (5=80-100%),5 (5=80-100%),5 (5=80-100%),5 (5=80-100%),5 (5=80-100%),4 (4=60-79%),5 (5=80-100%),5 (5=80-100%),,,,,,,,,,
CCn1nnnc1NC(=O)c1ccc(OC(F)(F)F)c(NC(=O)C2CCC2)c1Cl [Compound 1.111],5 (5=80-100%),5 (5=80-100%),5 (5=80-100%),1 (1=0-19%),5 (5=80-100%),4 (4=60-79%),4 (4=60-79%),1 (1=0-19%),1 (1=0-19%),5 (5=80-100%),,,,,,,,,,
CCC(CC)C(=O)Nc1c(OC(F)(F)F)ccc(C(=O)Nc2nnnn2C)c1Cl [Compound 1.104],5 (5=80-100%),5 (5=80-100%),5 (5=80-100%),5 (5=80-100%),5 (5=80-100%),4 (4=60-79%),5 (5=80-100%),2 (2=20-39%),3 (3=40-59%),5 (5=80-100%),,,,,,,,,,
Cn1nnnc1NC(=O)c1ccc(OCC(F)(F)F)c(NC(=O)C2CC2)c1Cl [Compound 1.017],4 (4=60-79%),5 (5=80-100%),5 (5=80-100%),5 (5=80-100%),5 (5=80-100%),5 (5=80-100%),5 (5=80-100%),5 (5=80-100%),5 (5=80-100%),5 (5=80-100%),,,,,,,,,,
CC(C)C(=O)Nc1c(OC(F)(F)F)ccc(C(=O)Nc2nnnn2C)c1Cl [Compound 1.124],5 (5=80-100%),5 (5=80-100%),5 (5=80-100%),5 (5=80-100%),5 (5=80-100%),4 (4=60-79%),5 (5=80-100%),1 (1=0-19%),4 (4=60-79%),5 (5=80-100%),,,,,,,,,,
Cn1nnnc1NC(=O)c1ccc(OC(F)F)c(NC(=O)c2ccccn2)c1Cl [Compound 1.108],,,,,,,,,,,4 (4=60-79%),5 (5=80-100%),4 (4=60-79%),4 (4=60-79%),5 (5=80-100%),4 (4=60-79%),2 (2=20-39%),2 (2=20-39%),3 (3=40-59%),5 (5=80-100%)
Cn1nnnc1NC(=O)c1ccc(OC(F)F)c(NC(=O)C2CC2(F)F)c1Cl (stereo not shown) [Compound 1.035],,,,,,,,,,,4 (4=60-79%),4 (4=60-79%),4 (4=60-79%),4 (4=60-79%),4 (4=60-79%),5 (5=80-100%),3 (3=40-59%),3 (3=40-59%),4 (4=60-79%),5 (5=80-100%)
Cc1c(C(=O)Nc2c(OC(F)F)ccc(C(=O)Nc3nnnn3C)c2Cl)nn(C)c1C [Compound 1.098],,,,,,,,,,,4 (4=60-79%),4 (4=60-79%),4 (4=60-79%),4 (4=60-79%),4 (4=60-79%),4 (4=60-79%),1 (1=0-19%),4 (4=60-79%),4 (4=60-79%),3 (3=40-59%)
"CC(F)C(=O)Nc1c(OCC(F)(F)F)ccc(C(=O)Nc2nnnn2C)c1Cl (stereo not shown) [Compound 1.016, 2-chloro-3-(2-fluoropropanoylamino)-N-(1-methyltetrazol-5-yl)-4-(2,2,2-trifluoroethoxy)benzamide]",5 (5=80-100%),5 (5=80-100%),5 (5=80-100%),5 (5=80-100%),5 (5=80-100%),5 (5=80-100%),5 (5=80-100%),5 (5=80-100%),5 (5=80-100%),5 (5=80-100%),,,,,,,,,,
Cn1nnnc1NC(=O)c1ccc(OC(F)(F)F)c(NC(=O)C2(C)CC2)c1Cl [Compound 1.033],5 (5=80-100%),5 (5=80-100%),5 (5=80-100%),5 (5=80-100%),5 (5=80-100%),5 (5=80-100%),5 (5=80-100%),5 (5=80-100%),5 (5=80-100%),5 (5=80-100%),,,,,,,,,,
CCn1nnnc1NC(=O)c1ccc(OC(F)(F)F)c(NC(=O)C(C)F)c1Cl (stereo not shown) [Compound 1.127],5 (5=80-100%),5 (5=80-100%),5 (5=80-100%),5 (5=80-100%),5 (5=80-100%),5 (5=80-100%),5 (5=80-100%),2 (2=20-39%),3 (3=40-59%),5 (5=80-100%),,,,,,,,,,
